In ChEMBL document CHEMBL1146824, “Synthesis and evaluation of indenopyrazoles as cyclin-dependent kinase inhibitors. Part 4: Heterocycles at C3” (Bioorg Med Chem Lett, 2004):

Key:
[1] = Binding affinity for Cyclin-dependent kinase 4-cyclin E
[2] = molecular target: Cyclin-dependent kinase 4/cyclin D1 (Homo sapiens, UniProt P11802); assay: Binding affinity for Cyclin-dependent kinase 4-cyclin D1; type: protein-complex assay
[3] = test system: HCT-116; assay: Inhibition of HCT116 cellular proliferation; type: functional, cell-based; conditions: Homo sapiens
[4] = test system: HCT-116; assay: Inhibition of HCT116 cell proliferation in the presence of human serum albumin and alpha-1-acidglycoprotein; type: functional, cell-based
[5] = test system: AG1523; assay: Inhibition of proliferation AG1523 (human fibroblast) cell line.; type: functional, cell-based
[6] = test system: HCT-116; assay: Inhibition of cellular proliferation of HCT116 cell line in the presence of human serum albumin and alpha-1-acidglycoprotein; type: functional, cell-based
[7] = test system: AG1523; assay: Inhibition of AG1523 (arrested) cell proliferation; type: functional, cell-based; conditions: Homo sapiens
[8] = test system: B16; assay: Inhibition of B16-F1 cell proliferation; type: functional, cell-based; conditions: Mus musculus
[9] = molecular target: Cyclin-dependent kinase 2/cyclin A (Homo sapiens, UniProt P24941); assay: Inhibition of Cyclin-dependent kinase 2-cyclin A; type: protein-complex assay
[10] = molecular target: Cyclin-dependent kinase 1/cyclin B (Homo sapiens, UniProt P06493); assay: Inhibition of cyclin-dependent kinase 1-cyclin B; type: protein-complex assay
[11] = test system: NCI-H1299; assay: Inhibition of H1299 cell proliferation; type: functional, cell-based; conditions: Homo sapiens
[12] = test system: HT-1080; assay: Inhibition of HT1080 cell proliferation; type: functional, cell-based; conditions: Homo sapiens
[13] = test system: HMEC; assay: Inhibition of HMEC cell proliferation; type: functional, cell-based; conditions: Homo sapiens
[14] = test system: L1210; assay: Inhibition of L1210 cell proliferation; type: functional, cell-based; conditions: Mus musculus
[15] = test system: MCF7; assay: Inhibition of MCF-7 cell proliferation; type: functional, cell-based; conditions: Homo sapiens
[16] = test system: MIA PaCa-2; assay: Inhibition of MiaPaCa2 cell proliferation; type: functional, cell-based; conditions: Homo sapiens
[17] = test system: NCI-H460; assay: Inhibition of NCI-H460 cell proliferation; type: functional, cell-based; conditions: Homo sapiens
[18] = test system: NCI-H358; assay: Inhibition of NCI-H358 cell proliferation; type: functional, cell-based; conditions: Homo sapiens
[19] = test system: PC-3; assay: Inhibition of PC3 cell proliferation; type: functional, cell-based; conditions: Homo sapiens
[20] = molecular target: cAMP-dependent protein kinase (PKA) (Homo sapiens, UniProt P22694+P17612+P22612); assay: Inhibition of protein kinase A; type: protein assay
[21] = molecular target: Tyrosine-protein kinase ABL1 (Homo sapiens, UniProt P00519); assay: Inhibition of c-Abl tyrosine kinase
Sequence of Tyrosine-protein kinase ABL1 (P00519 whole entry): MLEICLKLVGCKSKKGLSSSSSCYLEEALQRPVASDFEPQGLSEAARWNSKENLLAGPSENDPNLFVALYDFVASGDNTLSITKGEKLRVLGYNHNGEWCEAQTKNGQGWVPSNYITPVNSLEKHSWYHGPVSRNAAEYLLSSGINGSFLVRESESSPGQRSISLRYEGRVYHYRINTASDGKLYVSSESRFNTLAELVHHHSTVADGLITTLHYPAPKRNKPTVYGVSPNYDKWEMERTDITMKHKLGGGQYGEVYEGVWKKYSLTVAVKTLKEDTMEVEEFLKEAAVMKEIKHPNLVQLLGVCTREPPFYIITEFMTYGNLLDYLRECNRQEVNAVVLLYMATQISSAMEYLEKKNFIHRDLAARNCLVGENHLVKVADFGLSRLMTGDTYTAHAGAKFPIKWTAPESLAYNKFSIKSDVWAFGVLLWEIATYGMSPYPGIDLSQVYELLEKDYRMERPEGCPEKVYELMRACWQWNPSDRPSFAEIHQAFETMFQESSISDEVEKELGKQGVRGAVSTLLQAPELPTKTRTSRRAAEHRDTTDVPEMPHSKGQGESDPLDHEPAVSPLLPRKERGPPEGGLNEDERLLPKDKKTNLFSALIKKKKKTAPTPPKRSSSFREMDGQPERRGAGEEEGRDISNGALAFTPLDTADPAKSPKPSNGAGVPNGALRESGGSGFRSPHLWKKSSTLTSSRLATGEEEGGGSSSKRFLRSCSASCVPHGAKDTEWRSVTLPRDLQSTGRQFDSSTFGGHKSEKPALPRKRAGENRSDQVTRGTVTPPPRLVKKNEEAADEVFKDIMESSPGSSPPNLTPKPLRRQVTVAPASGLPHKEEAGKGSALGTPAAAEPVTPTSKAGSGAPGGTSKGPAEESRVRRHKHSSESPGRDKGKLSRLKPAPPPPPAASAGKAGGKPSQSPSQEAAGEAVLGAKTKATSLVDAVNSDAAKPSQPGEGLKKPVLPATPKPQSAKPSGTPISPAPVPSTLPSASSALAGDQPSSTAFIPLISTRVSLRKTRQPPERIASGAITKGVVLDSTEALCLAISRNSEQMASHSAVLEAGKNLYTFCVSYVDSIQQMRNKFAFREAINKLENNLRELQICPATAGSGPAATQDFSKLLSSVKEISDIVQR

[22] = test system: HT-29; assay: Inhibition of HT-29 cell proliferation; type: functional, cell-based; conditions: Homo sapiens
[23] = test system: SKUT-1A; assay: Inhibition of Skut 1A cell proliferation; type: functional, cell-based; conditions: Homo sapiens

Sequence of Cyclin-dependent kinase 4/cyclin D1 (P11802 whole entry): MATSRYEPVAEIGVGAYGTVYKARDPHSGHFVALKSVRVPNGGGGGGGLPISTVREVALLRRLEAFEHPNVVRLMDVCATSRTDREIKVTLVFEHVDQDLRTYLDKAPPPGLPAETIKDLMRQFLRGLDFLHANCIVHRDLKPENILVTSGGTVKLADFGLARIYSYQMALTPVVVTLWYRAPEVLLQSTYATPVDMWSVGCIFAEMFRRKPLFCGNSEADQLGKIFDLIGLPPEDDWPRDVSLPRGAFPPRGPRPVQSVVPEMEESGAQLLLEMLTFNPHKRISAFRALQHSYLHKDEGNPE
Sequence of Cyclin-dependent kinase 4/cyclin D1 (P24385 whole entry, further chain): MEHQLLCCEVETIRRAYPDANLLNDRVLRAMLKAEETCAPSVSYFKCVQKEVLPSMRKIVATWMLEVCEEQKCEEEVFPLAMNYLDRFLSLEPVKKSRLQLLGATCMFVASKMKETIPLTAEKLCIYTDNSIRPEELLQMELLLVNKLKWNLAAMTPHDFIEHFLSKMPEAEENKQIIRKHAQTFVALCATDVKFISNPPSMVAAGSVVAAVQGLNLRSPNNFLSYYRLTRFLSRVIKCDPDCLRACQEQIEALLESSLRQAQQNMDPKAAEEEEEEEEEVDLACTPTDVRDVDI

SMILES	IC50 [1] [µM]	IC50 [2] [µM]	IC50 [3] [µM]	IC50 [5] [µM]	other results
CN(C)CCNC(=O)c1ccc(-c2[nH]nc3c2C(=O)c2c(NC(=O)NN4CCOCC4)cccc2-3)s1	0.021	0.015	> 0.8	–	–
Cc1nc(C)c(-c2[nH]nc3c2C(=O)c2c(NC(=O)NN4CCOCC4)cccc2-3)s1	0.009	> 0.37	0.008	> 19	IC50 [4]: 0.5 µM
O=C(Nc1cccc2c1C(=O)c1c(-c3ccc(C(=O)N4CCCNCC4)s3)n[nH]c1-2)NN1CCOCC1	0.006	0.003	0.195	–	IC50 [4]: > 19.7 µM
O=C(Nc1cccc2c1C(=O)c1c(-c3ccc(C(=O)N4CCCCC4)s3)n[nH]c1-2)NN1CCOCC1	0.025	0.022	0.052	–	IC50 [6]: 16.8 µM
CN(C)NC(=O)Nc1cccc2c1C(=O)c1c(-c3ccsc3)n[nH]c1-2	0.024	0.107	0.068	0.605	–
Cc1cc(-c2n[nH]c3c2C(=O)c2c(NC(=O)NN4CCN(C)CC4)cccc2-3)c(C)s1	0.012	0.09	0.024	0.205	–
CNC1CCN(C(=O)c2ccc(-c3[nH]nc4c3C(=O)c3c(NC(=O)NN5CCOCC5)cccc3-4)s2)C1 (configuration not stated)	0.011	0.005	0.23	–	IC50 [4]: 8.5 µM
CN(C)NC(=O)Nc1cccc2c1C(=O)c1c(-c3csc(Cl)c3)n[nH]c1-2	0.007	0.021	0.064	0.615	–
Cc1cc(-c2n[nH]c3c2C(=O)c2c(NC(=O)NN(C)C)cccc2-3)c(C)s1	0.026	0.515	0.11	1.5	–
NC1CCN(C(=O)c2ccc(-c3[nH]nc4c3C(=O)c3c(NC(=O)NN5CCOCC5)cccc3-4)s2)C1 (configuration not stated)	0.039	0.035	> 0.8	–	–
CCOC(=O)c1ccc(-c2[nH]nc3c2C(=O)c2c(NC(=O)NN4CCN(C)CC4)cccc2-3)s1	0.036	0.03	0.046	–	–
CN(C)C1CCCN(C(=O)c2ccc(-c3[nH]nc4c3C(=O)c3c(NC(=O)NN5CCOCC5)cccc3-4)s2)C1 (configuration not stated)	0.024	0.013	0.188	–	IC50 [6]: 11.8 µM
CCOC(=O)c1ccc(-c2[nH]nc3c2C(=O)c2c(NC(=O)NN(C)C)cccc2-3)s1	0.028	0.185	0.38	2.8	–
Cc1nc(C)c(-c2n[nH]c3c2C(=O)c2c(NC(=O)NN(C)C)cccc2-3)s1	0.004	0.15	–	–	–
Cc1cc(-c2[nH]nc3c2C(=O)c2c(NC(=O)NN4CCOCC4)cccc2-3)c(C)s1	< 0.008	0.125	0.025	0.345	–
O=C(Nc1cccc2c1C(=O)c1c(-c3ccc(C(=O)NCCN4CCCC4)s3)n[nH]c1-2)NN1CCOCC1	0.025	0.023	0.475	0.68	–
Cc1nc(C)c(-c2[nH]nc3c2C(=O)c2c(NC(=O)NN4CCN(C)CC4)cccc2-3)s1	–	0.046	0.014	> 21	IC50 [7]: > 21 µM; IC50 [8]: 0.16 µM; IC50 [9]: 0.013 µM; IC50 [10]: 0.006 µM; IC50 [4]: 0.26 µM; IC50 [11]: 0.012 µM; IC50 [12]: 0.03 µM; IC50 [13]: 0.055 µM; IC50 [14]: 0.105 µM; IC50 [15]: 0.023 µM; IC50 [16]: 0.026 µM; IC50 [17]: 0.104 µM; IC50 [18]: 0.018 µM; IC50 [19]: 0.125 µM; IC50 [20]: > 42 µM; IC50 [21]: 17.6 µM; IC50 [22]: 0.087 µM; IC50 [23]: 0.025 µM
COc1ccc(-c2[nH]nc3c2C(=O)c2c(NC(=O)NN(C)C)cccc2-3)s1	0.032	0.084	0.13	1.55	–
CN1CCCN(C(=O)c2ccc(-c3[nH]nc4c3C(=O)c3c(NC(=O)NN5CCOCC5)cccc3-4)s2)CC1	0.015	0.004	0.019	0.063	IC50 [4]: 0.87 µM
O=C(Nc1cccc2c1C(=O)c1c(-c3ccc(C(=O)N4CCNCC4)s3)n[nH]c1-2)NN1CCOCC1	0.038	0.004	0.7	–	IC50 [6]: 15.4 µM
Cc1ccc(-c2[nH]nc3c2C(=O)c2c(NC(=O)NN4CCOCC4)cccc2-3)s1	0.01	0.023	0.025	0.285	–

More lines, in order of falling IC50 [2], values ahead:

IC50 [1] [µM]	IC50 [2] [µM]	IC50 [3] [µM]	SMILES	IC50 [5] [µM]	other results
0.026	0.635	0.16	CN(C)NC(=O)Nc1cccc2c1C(=O)c1c(-c3ccco3)n[nH]c1-2	–	–
0.036	0.34	0.075	CN(C)NC(=O)Nc1cccc2c1C(=O)c1c(-c3cccs3)n[nH]c1-2	0.905	–
0.051	0.086	0.86	O=C(Nc1cccc2c1C(=O)c1c(-c3ccc(C(=O)NCCN4CCOCC4)s3)n[nH]c1-2)NN1CCOCC1	–	–
0.025	0.081	0.048	Cc1ccc(-c2n[nH]c3c2C(=O)c2c(NC(=O)NN(C)C)cccc2-3)s1	0.64	–
0.031	0.03	0.11	CCOC(=O)c1ccc(-c2[nH]nc3c2C(=O)c2c(NC(=O)NN4CCOCC4)cccc2-3)s1	> 17	IC50 [4]: 3.2 µM
0.031	0.022	0.02	O=C(Nc1cccc2c1C(=O)c1c(-c3ccc(C(=O)NCCN4CCCCC4)s3)n[nH]c1-2)NN1CCOCC1	0.255	–
0.023	0.017	0.053	O=C(Nc1cccc2c1C(=O)c1c(-c3ccc(C(=O)N4CCCCCC4)s3)n[nH]c1-2)NN1CCOCC1	–	IC50 [4]: 8.32 µM
0.044	0.012	0.064	CN(C)C1CCN(C(=O)c2ccc(-c3[nH]nc4c3C(=O)c3c(NC(=O)NN5CCOCC5)cccc3-4)s2)C1 (configuration not stated)	0.33	IC50 [4]: 2.54 µM
0.032	0.01	0.11	CN1CCN(C(=O)c2ccc(-c3[nH]nc4c3C(=O)c3c(NC(=O)NN5CCOCC5)cccc3-4)s2)CC1	0.485	IC50 [6]: 9.94 µM
0.023	0.008	0.21	CN(C)C1CCN(C(=O)c2ccc(-c3[nH]nc4c3C(=O)c3c(NC(=O)NN5CCOCC5)cccc3-4)s2)CC1	1	IC50 [6]: > 15.1 µM
0.014	0.007	0.033	CCN1CCCN(C(=O)c2ccc(-c3[nH]nc4c3C(=O)c3c(NC(=O)NN5CCOCC5)cccc3-4)s2)CC1	–	IC50 [4]: 7.1 µM
0.01	0.007	0.035	O=C(Nc1cccc2c1C(=O)c1c-2n[nH]c1-c1csc(Cl)c1)NN1CCOCC1	0.385	–
0.019	0.005	0.063	CCN1CCN(C(=O)c2ccc(-c3[nH]nc4c3C(=O)c3c(NC(=O)NN5CCOCC5)cccc3-4)s2)CC1	–	IC50 [6]: 14.3 µM
